From article PMC6405172, “In vitro activity and mode of action of phenolic compounds on Leishmania donovani” (PLoS Neglected Tropical Diseases, 2019)
Where two headings read alike, the source gives them in different places.

Experiments:
Format in all cases: cell-based
[1] = tested on: Leishmania donovani promastigotes; assay: Promastigote viability assay (MTT); conditions: for Selectivity Index (CC50/IC50), promastigotes: CC50 Raw 264.7 / IC50 promastigotes; for IC50: Leishmania donovani, read-out: Promastigotes IC50 (μM) ± SD
Procedure: The MTT assay was done as previously described. Briefly, promastigotes (2 x 10^5 cells) were cultured in freshly prepared M-199 medium supplemented with 10% heat inactivated fetal bovine serum in the presence or absence of varying concentrations of the phenolic compounds (0–50 μg/mL) for 72 hours at 25°C. Amphotericin B (0–50 μg/mL) and deferoxamine (0–50 μg/mL) were used as positive controls. After incubation, 5 mg/mL MTT solution was added to the promastigotes in each well and incubated for 3 hours at 25°C. In this assay, the yellow tetrazolium MTT dye was reduced to insoluble formazan crystals (purple color) in living cells using NADH as their reducing agent. Formazan crystals formed after incubation were solubilized with acidified isopropanol and incubated at 37°C for 30 min. The change in color from yellow to purple was read at an absorbance of 570 nm using Thermo Scientific Varioskan LUX. The cell viability and IC50 were determined from the concentration response curve generated using GraphPad Prism 6.0 Software.

[2] = Cytotoxicity of compounds on mammalian cells (MTT); conditions: mouse, Raw 264.7 cells, read-out: Macrophages CC50 (μM) ±SD
Procedure: Raw 264.7 cells were seeded into 96-well plates at (1 x 10^6 cells) in DMEM supplemented with 10% FBS, 100 μg/mL streptomycin, 100 u/mL penicillin-G, 2g/L NaHCO3 and incubated at 37°C for 24 hours in 5% CO2. The cells were treated with 0–50 μg/mL concentrations of the phenolic compounds for 48 hours at 37°C in 5% CO2. Deferoxamine and amphotericin B at 0–50 μg/mL concentrations were used as positive controls. Cell viability was estimated by measuring the mitochondria oxidative activity by MTT assay and absorbance was read at 570 nm using Thermo Scientific Varioskan LUX. Selectivity index (SI) was calculated as the ratio of the CC50 to IC50 values.

[3] = tested on: Leishmania donovani intracellular amastigotes; assay: Intracellular amastigote assay in infected RAW 264.7 cells; conditions: for Selectivity Index (CC50/IC50), amastigotes: CC50 Raw 264.7 / IC50 intracellular amastigotes; for IC50: Leishmania donovani
Procedure: Amastigote cultures were prepared as reported by Jain and colleagues. Briefly, Raw 264.7 cells (4 x 10^7 cells) were seeded in 4 chamber slides and 1 x 10^7 cells in 96 well plates and incubated for 24 hours at 37°C in 5% CO2. The RAW 264.7 cells were infected with metacyclic promastigotes (1 x 10^8 cells) at an infection ratio of 1:10 macrophage: parasites and incubated for 24 hours at 37°C in 5% CO2. The overlying medium was removed, and the monolayer intracellular amastigotes were carefully washed four times with serum free M199 to remove free parasites. Freshly prepared M199 containing 10% FBS and the test compounds at concentrations ranging from 0–50 μg/mL were added to the infected cells and incubated for 48 hours at 37°C in 5% CO2. Triplicate incubations were performed in all the experiments. The chamber slides were washed thrice after incubation with M199 without FBS. The slides were then fixed in absolute methanol for 30 sec, rehydrated in 1x PBS for 5 min and stained with DAPI for 15 min. The slides were viewed by fluorescence microscopy and the number of infected macrophages counted using ImageJ Software to determine the infectivity index and IC50 values for amastigotes.
The infected RAW 264.7 cells in the 96 wells microtiter plates were also incubated for 48 hours and washed thrice as above. Sodium dodecyl sulfate (SDS) of concentration 0.05% was added to the wells for 30 sec for controlled lysis with M199 and 10% FBS. After the 30 sec, M199 with 10% FBS was added and the plates incubated at 25°C for 72 hours for the differentiation of the rescued amastigotes to promastigotes. Following incubation, the amastigotes were subjected to MTT assay and the absorbance obtained were used to estimate IC50 values of the compounds against the amastigote forms.

[4] = RAW264.7, intracellular amastigotes in RAW 264.7 cells, 48 hours, read-out: Amastigotes IC50 (μM) ± SD

SMILES | Selectivity Index (CC50/IC50), promastigotes [1] | IC50 ([1]; MTT, 72 hours at 25°C) | CC50 at 48 h ([2]; Raw 264.7 macrophage cells) | Selectivity Index (CC50/IC50), amastigotes [3] | IC50 [3, 4] | CC50 at 48 h [2] | IC50 ([3]; RAW264.7, 48 h, intracellular amastigotes in RAW 264.7 cells, 48 hours, read-out: Amastigotes IC50 (μM) ± SD) | IC50 ([1]; 72 h) | IC50 ([3]; RAW264.7, 48 h, read-out: Amastigotes IC50 (μM) ± SD, intracellular amastigotes in RAW 264.7 cells, 48 hours)
O=C(O)/C=C/c1ccc(O)c(O)c1 [Caffeic acid, caffeic acid] | 2.21 | 58.77 ± 0.01 µM | 129.92 ± 0.01 µM | 2.29 | 56.77 ± 0.01 µM |  |  |  | 
O=C(/C=C/c1ccc(O)c(O)c1)O[C@@H]1C[C@](O)(C(=O)O)C[C@@H](O)[C@H]1O [Chlorogenic acid, chlorogenic acid] | 1.11 | 53.92 ± 0.03 µM | 59.9 ± 0.02 µM | 1.11 | 53.75 ± 0.4 µM |  |  |  | 
COc1cc(/C=C/C(=O)O)ccc1O [Ferulic acid, ferulic acid] | 5.02 | 69 ± 0.01 µM |  | 6.30 |  | 346.7 ± 0.01 µM | 54.98 ± 0.01 µM |  | 
O=C(O)c1cc(O)c(O)c(O)c1 [Gallic acid, gallic acid] | 0.17 | 198 ± 0.03 µM |  | 0.60 | 54.65 ± 0.25 µM | 33.76 ± 0.02 µM |  |  | 
O=C(O)c1ccc(O)c(O)c1 [Protocatechuic acid, protocatechuic acid] | 7.05 |  |  |  |  | 511.9 ± 0.01 µM |  | 72.54 ± 0.01 µM | > 100 µM
O=C(O)c1ccccc1O [Salicylic acid, salicylic acid] | 0.83 | 75.4 ± 0.02 µM | 62.99 ± 0.01 µM | 0.69 | 90.65 ± 0.04 µM |  |  |  | 
COc1cc(C(=O)O)ccc1O [Vanillic acid, vanillic acid] | 0.19 | 68.97 ± 0.02 µM |  | 0.19 | 69.97 ± 0.02 µM | 13.15 ± 0.01 µM |  |  | 
O=C(O)C=Cc1ccc(O)cc1 [p-Coumaric acid] | 4.24 | 76.09 ± 0.01 µM |  |  | > 100 µM | 322.6 ± 0.15 µM |  |  | 
